Reference: patent US7704971B2, “Uracil reductase inactivators” (SmithKlineBeecham Corporation, priority 1990, dated 2010)
Read-outs that look alike come from different tables or passages of the source. Marks after values point to notes of the source that are not given here.

Tests used:
[1] = target: T1, Uracil reductase (dihydropyrimidine dehydrogenase, EC 1.3.1.2) (Bos taurus, UniProt Q28007); test: Determination of uracil reductase inactivation; type: biochemical, bovine; details: for relative first-order rate constants for inactivation of enzyme (parenthetical values): 50 micromol inactivator, fractional activity vs time of incubation; for inhibition at 100 µM: 0.5 h
T1 construct: purified from bovine liver; from tissue; host or cells: bovine liver
T1 sequence (Q28007 1-1025): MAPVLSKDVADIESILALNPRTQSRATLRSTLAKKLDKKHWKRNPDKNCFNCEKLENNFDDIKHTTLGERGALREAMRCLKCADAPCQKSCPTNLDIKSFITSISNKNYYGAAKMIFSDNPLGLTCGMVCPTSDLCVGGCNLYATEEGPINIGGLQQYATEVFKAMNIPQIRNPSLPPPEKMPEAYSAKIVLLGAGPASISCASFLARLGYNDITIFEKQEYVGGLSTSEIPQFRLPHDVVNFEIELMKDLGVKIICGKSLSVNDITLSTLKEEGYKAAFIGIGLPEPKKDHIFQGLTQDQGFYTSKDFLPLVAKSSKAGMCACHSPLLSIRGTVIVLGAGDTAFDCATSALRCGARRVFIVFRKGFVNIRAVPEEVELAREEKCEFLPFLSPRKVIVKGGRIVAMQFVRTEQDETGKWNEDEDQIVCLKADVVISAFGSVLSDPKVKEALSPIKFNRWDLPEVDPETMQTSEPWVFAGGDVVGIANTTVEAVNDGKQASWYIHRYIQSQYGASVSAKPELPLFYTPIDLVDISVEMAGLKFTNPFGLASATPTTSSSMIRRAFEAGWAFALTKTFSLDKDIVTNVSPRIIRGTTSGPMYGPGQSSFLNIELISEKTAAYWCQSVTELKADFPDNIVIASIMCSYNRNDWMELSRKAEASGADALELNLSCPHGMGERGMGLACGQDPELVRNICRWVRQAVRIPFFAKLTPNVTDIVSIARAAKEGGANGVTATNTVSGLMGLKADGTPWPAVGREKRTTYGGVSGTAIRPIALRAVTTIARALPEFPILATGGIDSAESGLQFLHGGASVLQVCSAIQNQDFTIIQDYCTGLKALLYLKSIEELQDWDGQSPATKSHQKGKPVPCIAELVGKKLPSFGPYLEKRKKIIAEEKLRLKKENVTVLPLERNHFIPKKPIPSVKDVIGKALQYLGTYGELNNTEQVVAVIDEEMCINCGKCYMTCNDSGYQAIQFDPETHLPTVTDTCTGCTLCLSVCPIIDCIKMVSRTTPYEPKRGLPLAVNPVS
Protocol: Uracil reductase (1 micromolar) (dihydropyrimidine dehydrogenase, EC 1.3.1.2) purified from bovine liver was incubated with 100 micromolar inactivator and 5 mM dithiothreitol (enzyme reductant) at 37° for 30 minutes in 0.05 M Tris-HCl at pH 8.0. The enzyme and inactivator were diluted 100-fold into the assay buffer, which contained 200 micromolar NADPH, 200 micromolar thymine and 1 mM dithiothreitol in Tris-HCl at pH 8.0. The velocity of the enzyme was determined spectrophotometrically. These velocities have been corrected for NADPH oxidase activity, which was less than […] of the rate of thymine-dependent oxidation of NADPH. The % inactivation of the enzyme was equal to 100% minus the percent of enzymatic activity remaining. Enzyme incubated without inhibitor was stable under these conditions. Parenthetical values are the relative first-order rate constants for inactivation of enzyme determined from similar experiments where the fractional activity was measured as a function of the time of incubation of 50 micromol inactivator with enzyme.

[2] = target: T2, dihydrothymidine dehydrogenase (Homo sapiens, UniProt Q12882); details: Cancer Research 46, 1094, 1986; cited from earlier work
T2 sequence (Q12882 4-1025): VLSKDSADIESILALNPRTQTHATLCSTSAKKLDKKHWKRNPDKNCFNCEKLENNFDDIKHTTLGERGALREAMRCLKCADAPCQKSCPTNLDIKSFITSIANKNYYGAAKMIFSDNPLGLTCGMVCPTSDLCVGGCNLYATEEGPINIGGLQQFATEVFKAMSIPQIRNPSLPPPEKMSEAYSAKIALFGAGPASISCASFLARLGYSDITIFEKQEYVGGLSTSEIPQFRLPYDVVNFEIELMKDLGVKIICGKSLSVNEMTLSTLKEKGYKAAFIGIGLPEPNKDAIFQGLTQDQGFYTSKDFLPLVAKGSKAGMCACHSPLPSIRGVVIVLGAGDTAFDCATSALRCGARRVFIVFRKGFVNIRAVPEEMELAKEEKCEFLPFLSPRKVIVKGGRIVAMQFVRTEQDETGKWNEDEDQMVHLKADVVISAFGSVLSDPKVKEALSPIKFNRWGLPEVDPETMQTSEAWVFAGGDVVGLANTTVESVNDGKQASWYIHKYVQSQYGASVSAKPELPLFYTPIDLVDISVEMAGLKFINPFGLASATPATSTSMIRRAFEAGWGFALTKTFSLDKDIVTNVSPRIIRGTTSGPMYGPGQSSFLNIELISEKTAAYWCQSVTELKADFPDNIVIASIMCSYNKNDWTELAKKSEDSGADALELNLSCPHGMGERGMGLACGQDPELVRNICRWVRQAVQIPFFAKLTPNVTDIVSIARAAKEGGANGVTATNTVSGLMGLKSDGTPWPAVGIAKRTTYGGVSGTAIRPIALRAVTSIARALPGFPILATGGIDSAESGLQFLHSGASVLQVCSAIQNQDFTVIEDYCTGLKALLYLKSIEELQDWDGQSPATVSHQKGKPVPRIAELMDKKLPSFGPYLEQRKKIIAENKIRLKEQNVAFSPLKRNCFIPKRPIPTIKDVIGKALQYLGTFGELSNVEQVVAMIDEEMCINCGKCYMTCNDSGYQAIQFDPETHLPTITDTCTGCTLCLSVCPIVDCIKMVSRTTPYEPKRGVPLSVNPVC

[3] = in vivo; cited from earlier work
Colon 38 tumor = test: Potentiation of the antitumor activity of 5-FU by EU, Colon 38 tumor in mice; type: in vivo
Protocol: Colon 38 tumor was implanted in mice on day zero. Mice (8 per group) were treated with 5-FU on days one through nine with the doses indicated in Table 2 EU was dosed i.p. at 2 mg/kg 30 minutes prior to 5-FU dosing where indicated.

[4] = 100 micromolar inactivator, 1 micromolar enzyme, 5 mM dithiothreitol, 37° for 30 minutes, pH 8.0, read-out: % Inactivation

Row | relative first-order rate constants for inactivation of enzyme (parenthetical values) [1] | inhibition at 100 µM [1, 4] [%] | Structure (SMILES) | other results
1 | (14) | 100 | N#Cc1c[nH]c(=O)[nH]c1=O [5-cyanouracil] | 
2 |  | 90 | CCCCC#Cc1c[nH]c(=O)[nH]c1=O [5-hex-1-ynyluracil] | 
3 | (8) | 100 | CC#Cc1c[nH]c(=O)[nH]c1=O [5-propynyluracil, 5-Propynyluracil] | melting point: 275 to 280 °C (dec.)
4 |  | 75 | O=c1[nH]cc(C(F)(F)F)c(=O)[nH]1 [5-trifluoromethyluracil] | 
5 |  | 86 | C=Cc1c[nH]c(=O)[nH]c1=O [5-vinyluracil] | 
6 | (4) | 100 | O=c1[nH]cc(I)c(=O)[nH]1 [Example 5-iodouracil, 5-iodouracil] | 

More lines, now with the values behind:

Row | Structure (SMILES) | relative first-order rate constants for inactivation of enzyme (parenthetical values) [1] | inhibition at 100 µM [1, 4] [%] | other results
7 | C=C(Cl)c1c[nH]c(=O)[nH]c1=O [5-(1-chlorovinyl)uracil] | (5) | 100 | 
8 | O=c1[nH]cc(C#CBr)c(=O)[nH]1 [5-bromoethynyluracil] | (8) | 100 | 
9 | O=c1[nH]cc(Br)c(=O)[nH]1 [5-bromouracil] |  |  | inhibition at 100 µM ([1]; pH 8, read-out: % Inactivation): 75%
10 | O=c1[nH]cc(C=CBr)c(=O)[nH]1 [BVU, 5-(2-bromovinyl)-uracil] |  |  | inhibition of dihydrothymidine dehydrogenase [2]: is an inhibitor; toxicity to humans [3]: toxic to humans
11 | O=c1[nH]cc(F)c(=O)[nH]1 [FU, 5-fluorouracil] |  |  | % Mice Tumor Free on Day 17 (Colon 38 tumor; 5-FU 10 mg/kg i.p. days 1-9, no EU): 0%; % Mice Tumor Free on Day 17 (Colon 38 tumor; 5-FU 10 mg/kg p.o. days 1-9, no EU): 0%; % Mice Tumor Free on Day 17 (Colon 38 tumor; 5-FU 15 mg/kg i.p. days 1-9, no EU): 12.5%; % Mice Tumor Free on Day 17 (Colon 38 tumor; 5-FU 15 mg/kg p.o. days 1-9, no EU): 12.5%; % Mice Tumor Free on Day 17 (Colon 38 tumor; 5-FU 20 mg/kg i.p. days 1-9, no EU): 12.5%; % Mice Tumor Free on Day 17 (Colon 38 tumor; 5-FU 20 mg/kg p.o. days 1-9, no EU): 12.5%; % Mice Tumor Free on Day 17 (Colon 38 tumor; 5-FU 25 mg/kg p.o. days 1-9, no EU): 12.5%; % Mice Tumor Free on Day 17 (Colon 38 tumor; 5-FU 30 mg/kg i.p. days 1-9, no EU): 87.5^a %; % Mice Tumor Free on Day 17 (Colon 38 tumor; 5-FU 30 mg/kg p.o. days 1-9, no EU): 12.5%
